Data: US20090209510A1, “Novel Method of Treating Hyperlipidemia” (TAKEDA PHARMACEUTICAL COMPANY LIMITED, priority 2005, published 2009)
Blank lines part the entries; values can stand above or below the compound they belong to.

Legend:
Hartley guinea pigs [1] = assay: Lowering effects on plasma cholesterol by use in combination of Compound X and simvastatin (Example 3); format: in vivo, guinea pig; conditions: guinea pigs on 0.05% cholesterol/10% corn oil diet, orally once a day 14 days, average ± standard error (N = 12)
Hartley guinea pigs [2] = assay: Influence of Compound X and cerivastatin on change of muscle-deviated enzymes (Example 6); format: in vivo, guinea pig; conditions: for increases in the creatinine phosphokinase and myoglobin in plasma: cerivastatin 1 mg/kg alone or with Compound X 30 mg/kg
Hartley guinea pigs [3] = assay: Influence of Compound X and atorvastatin on liver pathological change (Example 4); format: in vivo, guinea pig; conditions: for Total cholesterol: guinea pigs on 0.05% cholesterol/10% corn oil diet, 30 mg/kg alone, orally once a day 14 days, average ± standard error (N = 12)
Description: Furthermore, the liver was removed and pathological evaluation was conducted.

Hartley guinea pigs [4] = assay: Lowering effect on plasma cholesterol by use in combination of Compound X and atorvastatin (Example 2); format: in vivo, guinea pig; conditions: guinea pigs on 0.05% cholesterol/10% corn oil diet, orally once a day 14 days, average ± standard error (N = 12)
Wistar Fatty rats = assay: Lowering effect on plasma triglyceride by use in combination of Compound X and atorvastatin (Example 1); format: in vivo, rat; conditions: 30 mg/kg alone, orally once a day for 8 days, overnight fasting, average ± standard error (N = 6)
Hartley guinea pigs [5] = assay: Lowering effect on plasma cholesterol by triple combination of Compound X, simvastatin and ezetimibe (Example 7); format: in vivo, guinea pig; conditions: guinea pigs on 0.05% cholesterol/10% corn oil diet, Compound X 30 mg/kg alone, orally once a day 14 days; average ± standard error (N = 6)
Hartley guinea pigs [6] = conditions: plasma, atorvastatin 50 mg/kg alone, orally once a day 7 days, average ± standard error (N = 12)
Description: On the morning of the following day after the 7th administration, blood was collected, and the concentrations of the alanine aminotransferase and the aspartate aminotransferase, which are the markers of hepatic toxicity, in plasma were measured.

[7] = plasma, cerivastatin 1 mg/kg alone, orally once a day 14 days, average ± standard error (N = 16)

SMILES: CCC(C)(C)C(=O)O[C@H]1C[C@@H](C)C=C2C=C[C@H](C)[C@H](CC[C@@H]3C[C@@H](O)CC(=O)O3)[C@H]21 [Simvastatin, simvastatin]
Total cholesterol level (Hartley guinea pigs [1]; 10 mg/kg alone): 41.0 ± 3.6 mg/dL
Total cholesterol level (Hartley guinea pigs [1]; 30 mg/kg alone): 43.4 ± 2.2 mg/dL
Total cholesterol level (Hartley guinea pigs [1]; 100 mg/kg alone): 31.7 ± 2.6 mg/dL

SMILES: COc1cccc([C@H]2O[C@H](CC(=O)N3CCC(CC(=O)O)CC3)C(=O)N(CC(C)(C)COC(C)=O)c3ccc(Cl)cc32)c1OC [Compound X, N-[[(3R,5S)-1-(3-acetoxy-2,2-dimethylpropyl)-7-chloro-5-(2,3-dimethoxyphenyl)-2-oxo-1,2,3,5-tetrahydro-4,1-benzoxazepin-3-yl]acetyl]piperidine-4-acetic acid]
cholesterol-lowering effect (Hartley guinea pigs [2]; Compound X 30 mg/kg added to cerivastatin 1 mg/kg, 14 days): slightly increasing
increases in the creatinine phosphokinase and myoglobin in plasma (Hartley guinea pigs [2]; 14 days): significantly ameliorated the increases
Total cholesterol (Hartley guinea pigs [3]): 40.1 ± 3.1 mg/dL
Image of the liver cell necrosis (Hartley guinea pigs [3]; guinea pigs, each drug 30 mg/kg, alone or in combination, 14 days): not recognized
Total cholesterol level (Hartley guinea pigs [1]; 30 mg/kg alone): 40.2 ± 4.7 mg/dL
Total cholesterol level (Hartley guinea pigs [4]; 30 mg/kg alone): 44.4 ± 4.1 mg/dL
Plasma triglyceride value (Wistar Fatty rats): 376.5 ± 22.0 mg/dL
Total cholesterol level (Hartley guinea pigs [5]): 43.5 ± 4.1 mg/dL

increases in the creatinine phosphokinase and myoglobin in plasma (Hartley guinea pigs [2]; 14 days): Significant increases
CK (creatinine phosphokinase) (Hartley guinea pigs [2]; [7]): 4070 ± 800 U/L
Mb (myoglobin) (Hartley guinea pigs [2]; [7]): 25.7 ± 2.6 ng/mL
SMILES: COCc1c(C(C)C)nc(C(C)C)c(/C=C/[C@@H](O)C[C@@H](O)CC(=O)O)c1-c1ccc(F)cc1 [Cerivastatin, cerivastatin]
TC (Hartley guinea pigs [2]; cerivastatin 1 mg/kg alone, orally once a day 14 days, average ± standard error (N = 16)): 13.2 ± 0.8 mg/dL

Alanine aminotransferase (Hartley guinea pigs [6]): 48.9 ± 9.7 I.U./L
Aspartate aminotransferase (Hartley guinea pigs [6]): 169.0 ± 39.1 I.U./L
SMILES: CC(C)c1c(C(=O)Nc2ccccc2)c(-c2ccccc2)c(-c2ccc(F)cc2)n1CC[C@@H](O)C[C@@H](O)CC(=O)O [Atorvastatin, atorvastatin]
Total cholesterol (Hartley guinea pigs [3]): 32.9 ± 1.5 mg/dL
Total cholesterol level (Hartley guinea pigs [4]; 3 mg/kg alone): 46.1 ± 3.3 mg/dL
Total cholesterol level (Hartley guinea pigs [4]; 10 mg/kg alone): 37.4 ± 4.1 mg/dL
Total cholesterol level (Hartley guinea pigs [4]; 30 mg/kg alone): 33.5 ± 2.8 mg/dL
